Assay results reported in publication PMC7515716 (2020).

Assays:
[1] = test system: ribD/pbuE*7U FMN riboswitch (RNA, riboswitch) AAAUUAAAUAGCUAUUAUCACGAUUUUUCGGGGCAGGGUGGAAAUCCCGACCGGCGGUAGUAAAGCACAUUUGCUUUAGAGCCCGUGACCCGUGUGCAUAAGCACGCGGUGGAUUCAGUUUAAGCUGAAGCCGACAGUGAAAGUCUGGAUGGGAGAAAAAUCCUGAUUACAAAAUUUGUUUAUGACAUUUUUUGUAAUCAGGAUUUUUUUAUUUAUCAAAACAUUUAAGUAAAGGAGUUUGUUAUGUUUUUUUUGGCCAGUGAAUUCGAGCUCGGUACCCGGGGAUCCUCUAGAAAUAUGGAUUACUUGGUAGAACAGCAAUCUACUCGACCUGCAGGCAUGCAAGCUUGGCGUAAUCAUGGUCAUAGCUGUUUCCUGUGUUUAUCCGCUCACAAUUCCACACAACAUACGAGCCGGAAGCAUAAAG; assay: SPRINT: multiple-turnover transcription read-through, Cas13a fluorescence; settings: 70 mM Na+ (NaCl), 10 mM Mg2+; SPRINT buffer, 37 °C; low-affinity response
[2] = test system: xpt/pbuE*6U guanine riboswitch (RNA, riboswitch) AAAUUAAAUAGCUAUUAUCACGAUUUUUAUAAUCGCGUGGAUAUGGCACGCAAGUUUCUACCGGGCACCGUAAAUGUCCGACUAAAAAUCCUGAUUACAAAAUUUGUUUAUGACAUUUUUUGUAAUCAGGAUUUUUUAUUUAUCAAAACAUUUAAGUAAAGGAGUUUGUUAUGUUUUUUUUGGCCAGUGAAUUCGAGCUCGGUACCCGGGGAUCCUCUAGAAAUAUGGAUUACUUGGUAGAACAGCAAUCUACUCGACCUGCAGGCAUGCAAGCUUGGCGUAAUCAUGGUCAUAGCUGUUUCCUGUGUUUAUCCGCUCACAAUUCCACACAACAUACGAGCCGGAAGCAUAAAG; assay: as above; settings: 70 mM Na+ (NaCl), 2.5 mM Mg2+

| binding [1] | binding [2] | SMILES |
| --- | --- | --- |
| weak |  | Cc1cc2nc3c(=O)[nH]c(=O)nc-3n(C[C@H](O)[C@H](O)[C@H](O)COP(=O)(O)OP(=O)(O)OC[C@H]3O[C@@H](n4cnc5c(N)ncnc54)[C@H](O)[C@@H]3O)c2cc1C |
|  | weak | CNc1nc2[nH]cnc2c(=O)[nH]1 |
